Test results as given in ChEMBL document CHEMBL5385930, “Synthesis, Structure-Activity Relationship Study, Bioactivity, and Nephrotoxicity Evaluation of the Proposed Structure of the Cyclic Lipodepsipeptide Brevicidine B” (J Nat Prod, 2024).
≈ marks a conversion by molar mass, not a printed value. Positions of bridges follow the written chain, without caps; N, C: chain ends. Non-standard residues stand in square brackets, D forms with d. Residues, ends and D or L forms follow the SMILES beside them. ξ: configuration not given here. *: point of attachment. Hexanoyl(4ξ-Me) = CCC(C)CCC(=O)*; dOrn = NCCC[C@@H](N)C(=O)O; Orn = NCCC[C@H](N)C(=O)O

Assays:
Escherichia coli [1] = assay: Antibacterial activity against Escherichia coli ATCC 25922 assessed as reduction in bacterial growth by microbroth dilution assay; type: functional
Pseudomonas aeruginosa = assay: Antibacterial activity against Pseudomonas aeruginosa ATCC 27853 assessed as reduction in bacterial growth by microbroth dilution assay; type: functional
Klebsiella pneumoniae [2] = assay: Antibacterial activity against Klebsiella pneumoniae ATCC 700603 assessed as reduction in bacterial growth by microbroth dilution assay; type: functional
Acinetobacter baumannii [3] = assay: Antibacterial activity against multidrug resistant Acinetobacter baumannii AB5075 assessed as reduction in bacterial growth by microbroth dilution assay; type: functional
Escherichia coli [4] = assay: Antibacterial activity against multidrug resistant Escherichia coli MS834 harbouring mcr-1 assessed as reduction in bacterial growth by microbroth dilution assay; type: functional
Acinetobacter baumannii [5] = assay: Antibacterial activity against Acinetobacter baumannii ATCC 19606 assessed as reduction in bacterial growth by microbroth dilution assay; type: functional
Klebsiella pneumoniae [6] = assay: Antibacterial activity against pandrug-resistant Klebsiella pneumoniae MS6671 assessed as reduction in bacterial growth by microbroth dilution assay; type: functional
Klebsiella pneumoniae [7] = assay: Antibacterial activity against Klebsiella pneumoniae ATCC 33495 assessed as reduction in bacterial growth by microbroth dilution assay; type: functional
Enterococcus faecalis = assay: Antibacterial activity against vancomycin resistant Enterococcus faecalis V583 assessed as reduction in bacterial growth by microbroth dilution assay; type: functional
Staphylococcus aureus [8] = assay: Antibacterial activity against methicillin-resistant Staphylococcus aureus […] assessed as reduction in bacterial growth by microbroth dilution assay; type: functional
Staphylococcus aureus [9] = assay: Antibacterial activity against Staphylococcus aureus ATCC 25923 assessed as reduction in bacterial growth by microbroth dilution assay; type: functional
[10] = Nephrotoxicity in human Kidney organoid assessed as at 100 uM measured after 48 hrs by bright field imaging analysis; type: toxicity, tissue-based
[11] = Nephrotoxicity in human Kidney organoid assessed as at 300 uM measured after 48 hrs by bright field imaging analysis; type: toxicity, tissue-based
[12] = Nephrotoxicity in human Kidney organoid assessed as deterioration of renal tubule measured after 48 hrs by bright field imaging analysis; type: toxicity, tissue-based; details: dose 100-1000 µM

Compound	MIC (Escherichia coli [1]) [µg/mL]	MIC (Pseudomonas aeruginosa) [µg/mL]	MIC (Klebsiella pneumoniae [2]) [µg/mL]	MIC (Acinetobacter baumannii [3]) [µg/mL]	MIC (Escherichia coli [4]) [µg/mL]	MIC (Acinetobacter baumannii [5]) [µg/mL]	MIC (Klebsiella pneumoniae [6]) [µg/mL]	MIC (Klebsiella pneumoniae [7]) [µg/mL]	MIC (Enterococcus faecalis) [µg/mL]	MIC (Staphylococcus aureus [8]) [µg/mL]	MIC (Staphylococcus aureus [9]) [µg/mL]	Activity [10]	Activity [11]	Activity [12]
COLISTIN	0.125	1	0.25	1	4	0.5	32	0.25	–	–	–	–	–	–
CN[C@H](CC(C)C)C(=O)N[C@H]1C(=O)N[C@@H](CC(N)=O)C(=O)N[C@H]2C(=O)N[C@H]3C(=O)N[C@H](C(=O)N[C@H](C(=O)O)c4cc(O)cc(O)c4-c4cc3ccc4O)[C@H](O)c3ccc(c(Cl)c3)Oc3cc2cc(c3O[C@@H]2O[C@H](CO)[C@@H](O)[C@H](O)[C@H]2O[C@H]2C[C@](C)(N)[C@H](O)[C@H](C)O2)Oc2ccc(cc2Cl)[C@H]1O [VANCOMYCIN]	–	–	–	–	–	–	–	–	32 (≈ 22.1 µM)	–	–	–	–	–
CCC(C)CCC(=O)N[C@H](CC(N)=O)C(=O)N[C@@H](Cc1ccc(Br)cc1)C(=O)N[C@H](Cc1c[nH]c2ccccc12)C(=O)N[C@H](CCCN)C(=O)N[C@@H](CCCN)C(=O)NCC(=O)N[C@H](CCCN)C(=O)N[C@@H](Cc1c[nH]c2ccccc12)C(=O)N[C@@H]1C(=O)N[C@@H]([C@@H](C)CC)C(=O)NCC(=O)N[C@@H](CO)C(=O)O[C@@H]1C (some centres not stated)	32 (≈ 20.2 µM)	> 32	> 32	> 32	> 32	> 32	> 32	> 32	> 32	> 32	> 32	–	–	–
CCC(C)CCC(=O)N[C@H](CC(N)=O)C(=O)N[C@H](Cc1ccc(O)cc1)C(=O)N[C@H](Cc1c[nH]c2ccccc12)C(=O)N[C@H](CCCN)C(=O)N[C@@H](CCCN)C(=O)NCC(=O)N[C@H](CCCN)C(=O)N[C@@H](Cc1c[nH]c2ccccc12)C(=O)N[C@@H]1C(=O)N[C@@H]([C@@H](C)CC)C(=O)NCC(=O)N[C@@H](CO)C(=O)O[C@@H]1C (some centres not stated) ({Hexanoyl(4ξ-Me)}-[dN][dY][dW][dOrn][Orn]G[dOrn]WTIGS; ester 9-C)	4 (≈ 2.63 µM)	4 (≈ 2.63 µM)	8 (≈ 5.26 µM)	16 (≈ 10.5 µM)	4 (≈ 2.63 µM)	16 (≈ 10.5 µM)	16 (≈ 10.5 µM)	2 (≈ 1.32 µM)	> 32	> 32	> 32	Non-Toxic	Toxic	Dose-Dependent Effect
CCC(C)CCC(=O)N[C@H](CC(N)=O)C(=O)N[C@H](Cc1c[nH]cn1)C(=O)N[C@H](Cc1c[nH]c2ccccc12)C(=O)N[C@H](CCCN)C(=O)N[C@@H](CCCN)C(=O)NCC(=O)N[C@H](CCCN)C(=O)N[C@@H](Cc1c[nH]c2ccccc12)C(=O)N[C@@H]1C(=O)N[C@@H]([C@@H](C)CC)C(=O)NCC(=O)N[C@@H](CO)C(=O)O[C@@H]1C (some centres not stated)	> 32	> 32	> 32	> 32	> 32	> 32	> 32	> 32	> 32	> 32	> 32	–	–	–
CCC(C)CCC(=O)N[C@H](CC(N)=O)C(=O)N[C@H](C(=O)N[C@H](Cc1c[nH]c2ccccc12)C(=O)N[C@H](CCCN)C(=O)N[C@@H](CCCN)C(=O)NCC(=O)N[C@H](CCCN)C(=O)N[C@@H](Cc1c[nH]c2ccccc12)C(=O)N[C@@H]1C(=O)N[C@@H]([C@@H](C)CC)C(=O)NCC(=O)N[C@@H](CO)C(=O)O[C@@H]1C)C(c1ccccc1)c1ccccc1 (some centres not stated)	32 (≈ 20.3 µM)	> 32	> 32	32 (≈ 20.3 µM)	16 (≈ 10.1 µM)	32 (≈ 20.3 µM)	> 32	32 (≈ 20.3 µM)	> 32	> 32	> 32	–	–	–
CCC(C)CCC(=O)N[C@H](CC(N)=O)C(=O)N[C@H](Cc1c[nH]c2ccccc12)C(=O)N[C@H](Cc1c[nH]c2ccccc12)C(=O)N[C@H](CCCN)C(=O)N[C@@H](CCCN)C(=O)NCC(=O)N[C@H](CCCN)C(=O)N[C@@H](Cc1c[nH]c2ccccc12)C(=O)N[C@@H]1C(=O)N[C@@H]([C@@H](C)CC)C(=O)NCC(=O)N[C@@H](CO)C(=O)O[C@@H]1C (some centres not stated) ({Hexanoyl(4ξ-Me)}-[dN][dW][dW][dOrn][Orn]G[dOrn]WTIGS; ester 9-C)	32 (≈ 20.7 µM)	32 (≈ 20.7 µM)	32 (≈ 20.7 µM)	32 (≈ 20.7 µM)	32 (≈ 20.7 µM)	> 32	> 32	16 (≈ 10.4 µM)	> 32	> 32	> 32	–	–	–
